From patent US20230058316A1, “PEGYLATED IGE-DEPENDENT HISTAMINE-RELEASING FACTOR (HRF)-BINDING PEPTIDE AND USE THEREOF” (EWHA UNIVERSITY - INDUSTRY COLLABORATION FOUNDATION, priority 2020, published 2023)
Where no end group is shown, it is not given here.

Legend:
[1] = Metabolic stability in mouse liver microsomes; details: NADPH, 37° C., 30 minutes
Description: (§2) Upon completion of the reaction, cold acetonitrile containing internal standard was added, and then deproteinization was carried out. The reactant was centrifuged at 4° C., 4000 rpm for 15 minutes, and the supernatant was analyzed by LC-MS/MS. The system was verified with buspirone, a reference material.

[2] = Metabolic stability in human liver microsomes; details: pH 7.4
Description: as §2

[3] = target: T1, recombinant HRF (Homo sapiens, UniProt P13693); test: Inhibition of IL-8 secretion by HRF in BEAS-2B cells; format: cell-based; details: FIG. 7; for inhibition of IL-8 secretion by HRF: 0.75 nM and 7.5 nM with 75 nM recombinant HRF, 24 hours
T1 sequence (P13693 1-172): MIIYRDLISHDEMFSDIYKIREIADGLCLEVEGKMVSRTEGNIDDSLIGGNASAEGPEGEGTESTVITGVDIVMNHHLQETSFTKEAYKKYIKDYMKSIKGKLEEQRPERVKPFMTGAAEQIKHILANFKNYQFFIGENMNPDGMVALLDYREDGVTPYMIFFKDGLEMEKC
Description: The PEG (5000)-dTBP2 prepared in Preparative Example 4, Example 1, and Example 2 was diluted with 1% penicillin streptomycin/DMEM for each concentration (0, 0.75 nM, 7.5 nM), incubated with 75 nM recombinant HRF at room temperature for 15 minutes, and then treated to BEAS-2B cells grown to about 70% on a 48 well plate. The cells were cultured in a 37° C., 5% CO2 incubator for 24 hours, and the supernatant was obtained. Then, the released IL-8 was quantified by enzyme immunosorbent detection (Biolegend). The IL-8 enzyme immunosorbent detection was performed according to the protocol of Biolegend Human IL-8 ELISA kit with pre coated plates (431508). 300 μl of wash buffer was added to each well of the plate pre-coated with the IL-8 antibody, and the plate was washed a total of 4 times. Then, 50 μl of the supernatant was added to each well of the plate and left at room temperature for 2 hours. After 2 hours, the supernatant in the plate was removed, and 300 μl of wash buffer was added to each well of the plate. The plate was washed a total of 4 times, and then 100 μl of a detection antibody solution was added to each well of the plate and left at room temperature for 1 hour. Thereafter, 300 μl of wash buffer was added to each well of the plate, and the plate was washed a total of 4 times. Then, 100 μl of Avidin-HRP A solution was added to each well of the plate and left at room temperature for 30 minutes. Finally, 300 μl of wash buffer was added to each well of the plate, and after washing the plate 5 times, 100 μl of substrate solution F was added to each well of the plate and left at room temperature in a dark room. 100 μl of a stop solution was additionally added to each well of the plate, and absorbance was measured at 450 nm and 570 nm. The wash buffer, detection antibody solution, avidin HRP A solution, substrate solution F, and stop solution were all used as reagents included in a kit (431508, Biolegend).

[4] = test system: eosinophils in bronchoalveolar lavage fluid; test: Eosinophil increase in bronchoalveolar lavage fluid, ovalbumin-induced bronchial asthma and rhinitis mouse model; format: in vivo; details: 1 mg/kg IP, 8 times daily for 8 days, FIG. 9
Description: (§1) A bronchial asthma and rhinitis animal model was prepared by the following method. An ovalbumin solution was prepared by dissolving ovalbumin in an aluminum hydroxide solution (1 mg/ml) 28 and 14 days before the start of inducing bronchial asthma and rhinitis, and 200 μl of the solution was intraperitoneally injected into each mouse for sensitization. After 14 days of final sensitization, 20 μl of saline/PBS (normal control; NC) or 20 μl of 10 mg/mL ovalbumin solution (positive control; PC) was instilled into the nasal cavity of each lightly anesthetized mouse 4 times every other day for 8 days to induce bronchial asthma and rhinitis.
After anesthetizing the mouse by injecting a mixture of zoletil (250 mg/kg) and rompun (50 mg/kg) intraperitoneally, a 20-gauge catheter was inserted into the trachea by puncturing the trachea with a knife, and 0.6 mL of PBS at a time was injected-collected three times, and the collection rate was adjusted to 80%. The collected bronchoalveolar lavage fluid was centrifuged at 4° C., 3000 rpm for 10 minutes, and the cell precipitate was resuspended in 0.1 mL of PBS. 20 μL of the suspension was analyzed for the composition of blood cells using a fully automatic hematology analyzer (HEMAVET 950 FS, Drew Scientific, Inc.).

[5] = test system: IL-5; test: IL-5 secretion in bronchoalveolar lavage fluid, ovalbumin-induced bronchial asthma and rhinitis mouse model; format: in vivo; details: 1 mg/kg IP
Description: as §1
After the end of the experiment, the amount of IL-5 in the supernatant obtained by centrifuging bronchoalveolar lavage fluid was measured and quantified by enzyme immunosorbent detection using mouse IL-5 ELISA kit (Biolegend, USA).
Next, in order to confirm whether there is an effect of inhibiting IL-5 secretion even when administered in a small number of times, the dTBP2 of Preparative Example 4 and Example 3 was administered to the mouse model of Example 4-1 through intraperitoneal injection once in 4 days for a total of 2 times for 8 days inducing bronchial asthma and rhinitis. The amount of IL-5 was measured and quantified by the enzyme immunosorbent detection method in the same manner.
In addition, the dTBP2 of Preparative Example 4 and Example 3 was administered to the mouse model of Example 4-1 through intraperitoneal injection once on the 1st day of 8 days inducing bronchial asthma and rhinitis. The amount of IL-5 was measured and quantified by the enzyme immunosorbent detection method in the same manner.
The amount of IL-5 was measured and quantified by the enzyme immunosorbent detection method in the same manner.

[6] = test system: IL-4; test: IL-4 secretion in bronchoalveolar lavage fluid, ovalbumin-induced bronchial asthma and rhinitis mouse model; format: in vivo; details: 1 mg/kg IP
Description: as §1
After the end of the experiment, the amount of IL-4 in the supernatant obtained by centrifuging bronchoalveolar lavage fluid was measured and quantified by enzyme immunosorbent detection using mouse IL-4 ELISA kit (Biolegend, USA).
Next, in order to confirm whether there is an effect of inhibiting IL-4 secretion even when administered in a small number of times, the dTBP2 of Preparative Example 4 and Example 3 was administered to the mouse model of Example 4-1 through intraperitoneal injection once in 4 days for a total of 2 times for 8 days inducing bronchial asthma and rhinitis. The amount of IL-4 was measured and quantified by the enzyme immunosorbent detection method in the same manner.
In addition, the dTBP2 of Preparative Example 4 and Example 3 was administered to the mouse model of Example 4-1 through intraperitoneal injection once on the 1st day of 8 days inducing bronchial asthma and rhinitis. The amount of IL-4 was measured and quantified by the enzyme immunosorbent detection method in the same manner.
The amount of IL-4 was measured and quantified by the enzyme immunosorbent detection method in the same manner.

[7] = test system: IL-13; test: IL-13 secretion in bronchoalveolar lavage fluid, ovalbumin-induced bronchial asthma and rhinitis mouse model; format: in vivo; details: 1 mg/kg IP, 8 times daily for 8 days, FIG. 18
Description: as §1
After the end of the experiment, the amount of IL-13 in the supernatant obtained by centrifuging bronchoalveolar lavage fluid was measured and quantified by enzyme immunosorbent detection using mouse IL-13 ELISA kit (R&D system, USA).
Next, in order to confirm whether there is an effect of inhibiting IL-13 secretion even when administered in a small number of times, the dTBP2 of Preparative Example 4 and Example 3 was administered to the mouse model of Example 4-1 through intraperitoneal injection once in 4 days for a total of 2 times for 8 days inducing bronchial asthma and rhinitis. The amount of IL-13 was measured and quantified by the enzyme immunosorbent detection method in the same manner.
In addition, the dTBP2 of Preparative Example 4 and Example 3 was administered to the mouse model of Example 4-1 through intraperitoneal injection once on the 1st day of 8 days inducing bronchial asthma and rhinitis. The amount of IL-13 was measured and quantified by the enzyme immunosorbent detection method in the same manner.
The amount of IL-13 was measured and quantified by the enzyme immunosorbent detection method in the same manner.

[8] = test system: ovalbumin-specific IgE; test: Ovalbumin-specific IgE secretion in mouse plasma, ovalbumin-induced bronchial asthma and rhinitis mouse model; format: in vivo; details: plasma, 1 mg/kg IP, 8 times daily for 8 days
Description: as §1
Ovalbumin is an allergy-causing substance mainly contained in egg whites. […] After completion of the experiment, the mouse was anesthetized by injecting a mixture of zoletil (250 mg/kg) and rompun (50 mg/kg) intraperitoneally, and the chest was opened. 0.8 mL blood was collected by puncture of the heart with a 26 gauge 1 mL syringe coated with heparin. The collected blood was centrifuged at 4° C., 3000 rpm for 10 minutes to obtain plasma components. The amount of ovalbumin-specific IgE in the blood serum obtained through the above process was measured and quantified by enzyme immunosorbent detection method using mouse OVA specific IgE kit (Biolegend, USA).
Next, in order to confirm whether there is an effect of inhibiting ovalbumin-specific IgE secretion in plasma even when administered in a small number of times, the dTBP2 of Preparative Example 4 and Example 3 was administered to the mouse model of Example 4-1 through intraperitoneal injection once in 4 days for a total of 2 times for 8 days inducing bronchial asthma and rhinitis. The amount of ovalbumin-specific IgE secretion was measured and quantified by the enzyme immunosorbent detection method in the same manner.
In addition, the dTBP2 of Preparative Example 4 and Example 3 was administered to the mouse model of Example 4-1 through intraperitoneal injection once on the 1st day of 8 days inducing bronchial asthma and rhinitis. The amount of ovalbumin-specific IgE secretion was measured and quantified by the enzyme immunosorbent detection method in the same manner.
The amount of ovalbumin-specific IgE secretion was measured and quantified by the enzyme immunosorbent detection method in the same manner.

[9] = Pharmacokinetic analysis in ICR mice; format: in vivo; details: mouse, plasma, IV, 10 mg/kg
Description: The dTBP2 of Preparative Examples 4 and Example 3 was added to a solution prepared in DMSO:PEG400:DW=5:55:40, and this was administered at the concentration of 5 mL/kg. Blood samples were taken at 0.083, 0.25, 0.5, 1, 2, 4, and 8 hours post injection. The blood was centrifuged at 4° C., 3000 rpm for 10 minutes, to which cold acetonitrile containing internal standard was added in an amount 4 times the plasma component, and then deproteinization was carried out. After centrifugation again at 4° C., 13000 rpm for 10 minutes, the supernatant was collected and analyzed by Agilent 6460 LC-MS/MS. Pharmacokinetic analysis was performed with Phoenix WinNonlin (Pharsight ver 6.4, USA) using a non-compartmental analysis model.

O=C1CC2(CCCC2)CC(=O)N1CCCCN1CCN(c2ncccn2)CC1 [Buspirone, buspirone]
Mouse (%) remaining after reaction [1]: 0.10%
remaining at 0.5 h [2]: 6.15%

Example 1: dTBP2 (WYVYPSM) conjugated at the N-terminal with methoxy polyethylene glycol propionaldehyde (5 kDa) ({mPEG propionaldehyde 5 kDa}-WYVYPSM)
inhibition of IL-8 secretion by HRF [3]: effective
inhibitory effect on the IL-8 secretion by HRF, comparison among the tested peptides [3]: best

Example 2: dTBP2 (WYVYPSM) conjugated at the C-terminal with methoxy polyethylene glycol hydrazide (5 kDa) (WYVYPSM-{mPEG hydrazide 5 kDa})
inhibition of IL-8 secretion by HRF [3]: effective

Methoxy polyethylene glycol propionaldehyde (5000) [Preparative Example 1]
inhibition of IL-8 secretion by HRF [3]: effective

WYVYPSM [Preparative Example 4, WYVYPSM, reference compound]
reduction of increased eosinophils vs positive control [4]: about 40%
reduction of IL-5 secretion ([5]; 8 times daily for 8 days, FIG. 10): about 25%
IL-5 secretion inhibitory effect ([5]; once on the 5th day of 8 days, FIG. 13): weak
reduction of IL-4 secretion ([6]; 8 times daily for 8 days, FIG. 14): about 50%
IL-4 secretion inhibitory effect ([6]; once on the 5th day of 8 days, FIG. 17): weak
reduction of IL-13 secretion [7]: about 30%
inhibiting ovalbumin-specific IgE secretion in plasma (in words) [8]: very effective
reduction of ovalbumin-specific IgE secretion ([8]; FIG. 22): about 50%
AUC(0-inf) [9]: 30 ng·h/mL
AUC(0-t) [9]: 20 ng·h/mL
half-life ([9]; read-out: T1/2 (half life) (converted)): 1.91 h
Vd ([9]; read-out: Vss (steady-state volume of distribution)): 783 L/kg
